Measurements published in patent publication US20250230193A1, “CYCLIC COMPOUND HAVING SELECTIVE KRAS INHIBITORY EFFECT ON HRAS AND NRAS” (CHUGAI SEIYAKU KABUSHIKI KAISHA, priority 2022, published 2025).

Key:
[1] = target: GDP-bound HRAS wild-type protein (Homo sapiens, UniProt P01112); assay: Binding to HRAS by surface plasmon resonance (SPR), Single Cycle Kinetics; settings: KD ratio, GDP-bound HRAS wild-type vs GDP-bound KRAS wild-type, SPR
[2] = target: GDP-bound NRAS wild-type protein (Homo sapiens, UniProt P01111); assay: Binding to NRAS by surface plasmon resonance (SPR), Single Cycle Kinetics; settings: KD ratio, GDP-bound NRAS wild-type vs GDP-bound KRAS wild-type, SPR
Sequence of GDP-bound NRAS wild-type protein (P01111 whole entry): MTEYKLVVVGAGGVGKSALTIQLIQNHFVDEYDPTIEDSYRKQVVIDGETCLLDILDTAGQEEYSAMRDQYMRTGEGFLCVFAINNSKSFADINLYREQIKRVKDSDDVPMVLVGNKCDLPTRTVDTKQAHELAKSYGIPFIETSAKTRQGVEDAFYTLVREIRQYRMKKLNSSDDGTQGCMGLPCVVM

Sequence of GDP-bound HRAS wild-type protein (P01112 whole entry): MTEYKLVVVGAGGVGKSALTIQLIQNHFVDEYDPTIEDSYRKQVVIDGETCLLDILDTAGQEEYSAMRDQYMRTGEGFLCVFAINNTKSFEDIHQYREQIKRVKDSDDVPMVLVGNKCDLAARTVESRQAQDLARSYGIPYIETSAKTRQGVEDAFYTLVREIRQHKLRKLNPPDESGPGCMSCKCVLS

| SMILES | HRAS/KRAS (ratio of KD value for HRAS to KD value for KRAS) [1] | NRAS/KRAS (ratio of KD value for NRAS to KD value for KRAS) [2] |
| --- | --- | --- |
| CCC[C@H]1C(=O)N[C@@H]([C@@H](C)CC)C(=O)N(C)CC(=O)N(C)[C@H]2C/C=C\CCN(C2=O)[C@@H](Cc2ccc(C)cc2)C(=O)N(C)CC(=O)N[C@@H](CCc2cc(F)c(C(F)(F)F)c(F)c2)C(=O)N2CCC[C@H]2C(=O)N(C)C2(CCC2)C(=O)N(C)[C@@H](C2CCCC2)C(=O)N(C)[C@H](C(=O)N(C)C)CC(=O)N1C [PP1794] | B (a compound having 3 or more and less than 10 is denoted as B) | A (a compound having 10 or more and less than 20 is denoted as A) |
| CCO[C@@H]1C[C@H]2C(=O)N(C)C3(CCC3)C(=O)N(C)[C@@H](C3CCCC3)C(=O)N(C)[C@H](C(=O)N(C)C)CC(=O)N(C)[C@@H](CC3CC3)C(=O)N[C@@H]([C@@H](C)CC)C(=O)N(C)CC(=O)N(C)[C@H]3C/C=C\CCN(C3=O)[C@@H](Cc3ccc(C)cc3)C(=O)N(C)CC(=O)N[C@@H](CCc3cc(F)c(C(F)(F)F)c(F)c3)C(=O)N2C1 [PP1795] | B (a compound having 3 or more and less than 10 is denoted as B) | A (a compound having 10 or more and less than 20 is denoted as A) |
| CC[C@H](C)[C@@H]1NC(=O)[C@H](CC2CC2)N(C)C(=O)C[C@@H](C(=O)N(C)C)N(C)C(=O)[C@H](C2CCCC2)N(C)C(=O)C2(CCC2)N(C)C(=O)[C@@H]2CCCN2C(=O)[C@H](CCc2cc(F)c(C(F)(F)F)c(F)c2)NC(=O)CN(C)C(=O)[C@H](Cc2ccc(C)cc2)N2CC/C=C\C[C@@H](C2=O)N(C)C(=O)CN(C)C1=O [PP1796] | B (a compound having 3 or more and less than 10 is denoted as B) | A (a compound having 10 or more and less than 20 is denoted as A) |
| CCO[C@@H]1C[C@H]2C(=O)N(C)C3(CCC3)C(=O)N(C)[C@@H](C3CCCC3)C(=O)N(C)[C@H](C(=O)N(C)C)CC(=O)N(C)[C@@H](CC3CC3)C(=O)N[C@@H]([C@@H](C)CC)C(=O)N3CCC[C@H]3C(=O)N(C)[C@H]3C/C=C\CCN(C3=O)[C@@H](Cc3ccc(C)cc3)C(=O)N(C)CC(=O)N[C@@H](CCc3cc(F)c(C(F)(F)F)c(F)c3)C(=O)N2C1 [PP1797] | A (a compound having 10 or more and less than 20 is denoted as A) | A (a compound having 10 or more and less than 20 is denoted as A) |
| CC[C@H](C)[C@@H]1NC(=O)[C@H](CC2CC2)N(C)C(=O)C[C@@H](C(=O)N(C)C)N(C)C(=O)[C@H](C2CCCC2)N(C)C(=O)C2(CCC2)N(C)C(=O)[C@@H]2CCCN2C(=O)[C@H](CCc2cc(F)c(C(F)(F)F)c(F)c2)NC(=O)CN(C)C(=O)[C@H](Cc2ccc(C)cc2)N2CC/C=C\C[C@@H](C2=O)N(C)C(=O)[C@@H]2CCCN2C1=O [PP1798] | B (a compound having 3 or more and less than 10 is denoted as B) | A (a compound having 10 or more and less than 20 is denoted as A) |
| CCC[C@H]1C(=O)N[C@@H]([C@@H](C)CC)C(=O)N(C)CC(=O)N(C)[C@H]2C/C=C\CCN(C2=O)[C@@H](Cc2ccc(C)cc2)C(=O)N(C)CC(=O)N[C@@H](CCc2cc(F)c(C(F)(F)F)c(F)c2)C(=O)N2C[C@H](C)C[C@H]2C(=O)N(C)C2(CCC2)C(=O)N(C)[C@@H](C2CCCC2)C(=O)N(C)[C@H](C(=O)N(C)C)CC(=O)N1C [PP1799] | B (a compound having 3 or more and less than 10 is denoted as B) | B (a compound having 3 or more and less than 10 is denoted as B) |
| CC[C@H](C)[C@@H]1NC(=O)[C@H](CC2CC2)N(C)C(=O)C[C@@H](C(=O)N(C)C)N(C)C(=O)[C@H](C2CCCC2)N(C)C(=O)C2(CCC2)N(C)C(=O)[C@@H]2C[C@@H](C)CN2C(=O)[C@H](CCc2cc(F)c(C(F)(F)F)c(F)c2)NC(=O)CN(C)C(=O)[C@H](Cc2ccc(C)cc2)N2CC/C=C\C[C@@H](C2=O)N(C)C(=O)CN(C)C1=O [PP1800] | A (a compound having 10 or more and less than 20 is denoted as A) | A (a compound having 10 or more and less than 20 is denoted as A) |
| CC[C@H](C)[C@@H]1NC(=O)[C@H](CC2CC2)N(C)C(=O)C[C@@H](C(=O)N(C)C)N(C)C(=O)[C@H](C2CCCC2)N(C)C(=O)C2(CCC2)N(C)C(=O)[C@@H]2C[C@@H](C)CN2C(=O)[C@H](CCc2cc(F)c(C(F)(F)F)c(F)c2)NC(=O)CN(C)C(=O)[C@H](Cc2ccc(C)cc2)N2CC/C=C\C[C@@H](C2=O)N(C)C(=O)[C@@H]2CCCN2C1=O [PP1801] | B (a compound having 3 or more and less than 10 is denoted as B) | A (a compound having 10 or more and less than 20 is denoted as A) |
| CC[C@H](C)[C@@H]1NC(=O)[C@H](CC2CCC2)N(C)C(=O)C[C@@H](C(=O)N(C)C)N(C)C(=O)[C@H](C2CCCC2)N(C)C(=O)C2(CCC2)N(C)C(=O)[C@@H]2CCCN2C(=O)[C@H](CCc2cc(F)c(C(F)(F)F)c(F)c2)NC(=O)CN(C)C(=O)[C@H](Cc2ccc(C)cc2)N2CC/C=C\C[C@@H](C2=O)N(C)C(=O)CN(C)C1=O [PP1802] | B (a compound having 3 or more and less than 10 is denoted as B) | A (a compound having 10 or more and less than 20 is denoted as A) |
| CC[C@H](C)[C@@H]1NC(=O)[C@H](CC2CCC2)N(C)C(=O)C[C@@H](C(=O)N(C)C)N(C)C(=O)[C@H](C2CCCC2)N(C)C(=O)C2(CCC2)N(C)C(=O)[C@@H]2C[C@@H](C)CN2C(=O)[C@H](CCc2cc(F)c(C(F)(F)F)c(F)c2)NC(=O)CN(C)C(=O)[C@H](Cc2ccc(C)cc2)N2CC/C=C\C[C@@H](C2=O)N(C)C(=O)CN(C)C1=O [PP1803] | B (a compound having 3 or more and less than 10 is denoted as B) | A (a compound having 10 or more and less than 20 is denoted as A) |
| CCO[C@@H]1C[C@H]2C(=O)N(C)C3(CCCC3)C(=O)N(C)[C@@H](C3CCCC3)C(=O)N(C)[C@H](C(=O)N(C)C)CC(=O)N(C)[C@@H](CC)C(=O)N[C@@H]([C@@H](C)CC)C(=O)N(C)CC(=O)N(C)[C@H]3C/C=C\CCN(C3=O)[C@@H](Cc3ccc(C(F)(F)F)cc3)C(=O)N(C)CC(=O)N[C@@H](CCc3cc(F)c(C(F)(F)F)c(F)c3)C(=O)N2C1 [PP1804] | A (a compound having 10 or more and less than 20 is denoted as A) | A (a compound having 10 or more and less than 20 is denoted as A) |
| CC[C@H](C)[C@@H]1NC(=O)[C@H](CC)N(C)C(=O)C[C@@H](C(=O)N(C)C)N(C)C(=O)[C@H](C2CCCC2)N(C)C(=O)C2(CCCC2)N(C)C(=O)[C@@H]2CCCN2C(=O)[C@H](CCc2cc(F)c(C(F)(F)F)c(F)c2)NC(=O)CN(C)C(=O)[C@H](Cc2ccc(C(F)(F)F)cc2)N2CC/C=C\C[C@@H](C2=O)N(C)C(=O)CN(C)C1=O [PP1805] | A (a compound having 10 or more and less than 20 is denoted as A) | A (a compound having 10 or more and less than 20 is denoted as A) |
